Article PMC12696353, “Structural insights into endogenous agonist selectivity of aminergic receptors from the octopamine β2 receptor” (PNAS Nexus, 2025)
Residue numbers refer to the chain shown, from its start. Like-named read-outs stand apart in the source and are kept apart here.

Legend:
[1] = molecular target: is-octβ2R F304^6.52A mutant (Ixodes scapularis, UniProt A0ACM8E5E8, F304A); test: TGFα shedding assay, mutant F304^6.52A; type: cell-based; settings: Table S6
Experimental: (§1) The TGFα shedding assay was performed as previously described ([28]). […] The cells were transfected using lipofectamine 2000 with plasmids encoding alkaline phosphatase–tagged TGFα (AP-TGFα) (2.5 ng/mL), is-octβ2Rs (1 ng/mL), and Gαq/s (0.5 ng/mL). After 24 h, the cells were washed with phosphate-buffered saline and resuspended in Hank's balanced salt solution (HBSS) (supplemented with 5 mM HEPES [pH 7.4]). The cells (90 μL/well) were plated in a 96-well plate and incubated with 10 μL of HBSS solution containing various concentrations of compounds for 1 h at 37 °C. Following centrifugation (200 × g, 2 min), 80 μL of the supernatant was transferred to a separate 96-well plate. Subsequently, 80 µL of 2× para-nitrophenyl phosphate (pNPP) buffer (containing 10 mM pNPP in 40 mM Tris–HCl [pH 9.5], 40 mM NaCl, and 10 mM MgCl2) was added to both the supernatant and cell-containing plates. The optical density at 405 nm of both plates was measured before and after a 1 h incubation at room temperature using a microplate reader (SpectraMax iD3, Molecular Devices, San Jose, CA, United States). AP-TGFα release was calculated using the following formulas:
(§2) ΔOD405=OD450(1h)−OD405(0h)AP−TGFαinsupernatant(%)=(ΔOD405Sup/[ΔOD450Sup+ΔOD405Cell])×125AP−TGFαrelease(%)=AP−TGFαinsupernatantunderastimulatedcondition(%)−AP−TGFαinsupernatantunderavehicle−treatedcondition […]

[2] = tested on: is-octβ2R Y332^7.43A mutant; test: TGFα shedding assay, mutant Y332^7.43A; type: cell-based, Ixodes scapularis; settings: Table S6
Experimental: as §1, §2

[3] = molecular target: is-octβ2R S203^5.46A mutant (Ixodes scapularis, UniProt A0ACM8E5E8, S203A); test: TGFα shedding assay, mutant S203^5.46A; type: cell-based
Experimental: as §1, §2

[4] = molecular target: is-octβ2R V111^3.33A mutant (Ixodes scapularis, UniProt A0ACM8E5E8, V111A); test: TGFα shedding assay, mutant V111^3.33A; type: cell-based
Experimental: as §1, §2

[5] = molecular target: I. scapularis octβ2R (is-octβ2R) (Ixodes scapularis, UniProt A0ACM8E5E8); test: cell-based; type: cell-based; settings: for Emax: AP-TGFα release
Experimental: as §1
(§3) ΔOD405=OD450(1h)−OD405(0h)AP−TGFαinsupernatant(%)=(ΔOD405Sup/[ΔOD450Sup+ΔOD405Cell])×125AP−TGFαrelease(%)=AP−TGFαinsupernatantunderastimulatedcondition(%)−AP−TGFαinsupernatantunderavehicle−treatedcondition
(§4) where OD405 (0 h) and […] represent the OD405 before and after a 1 h incubation, respectively, and OD405Sup and OD405Cell represent the OD405 of supernatant and cell plates, respectively. For all pharmacological analyses, nonlinear regression curve fitting was performed with a 3-parameter sigmoid model (Hill coefficient = 1) using Prism 8 (GraphPad Software, La Jolla, CA, United States).

[6] = tested on: is-octβ2R F303^6.51A mutant; test: TGFα shedding assay, mutant F303^6.51A; type: cell-based, Ixodes scapularis; settings: Table S6
Experimental: as §1, §2

[7] = tested on: is-octβ2R D110^3.32N mutant; test: TGFα shedding assay, mutant D110^3.32N; type: cell-based, Ixodes scapularis; settings: Table S6
Experimental: as §1, §2

[8] = molecular target: is-octβ2R S114^3.36A mutant (Ixodes scapularis, UniProt A0ACM8E5E8, S114A); test: TGFα shedding assay, mutant S114^3.36A; type: cell-based; settings: Table S6
Experimental: as §1, §2

[9] = molecular target: is-octβ2R T115^3.37A mutant (Ixodes scapularis, UniProt A0ACM8E5E8, T115A); test: TGFα shedding assay, mutant T115^3.37A; type: cell-based
Experimental: as §1, §2

[10] = tested on: is-octβ2R F189^45.52A mutant; test: TGFα shedding assay, mutant F189^45.52A; type: cell-based, Ixodes scapularis; settings: Table S6
Experimental: as §1, §2

[11] = molecular target: T1, is-octβ2R N87^2.61S mutant (Ixodes scapularis, UniProt A0ACM8E5E8, N87S); test: TGFα shedding assay, amitraz-resistant mutant N87^2.61S; type: cell-based; settings: Table S4
T1 sequence (A0ACM8E5E8 1-384 N87S): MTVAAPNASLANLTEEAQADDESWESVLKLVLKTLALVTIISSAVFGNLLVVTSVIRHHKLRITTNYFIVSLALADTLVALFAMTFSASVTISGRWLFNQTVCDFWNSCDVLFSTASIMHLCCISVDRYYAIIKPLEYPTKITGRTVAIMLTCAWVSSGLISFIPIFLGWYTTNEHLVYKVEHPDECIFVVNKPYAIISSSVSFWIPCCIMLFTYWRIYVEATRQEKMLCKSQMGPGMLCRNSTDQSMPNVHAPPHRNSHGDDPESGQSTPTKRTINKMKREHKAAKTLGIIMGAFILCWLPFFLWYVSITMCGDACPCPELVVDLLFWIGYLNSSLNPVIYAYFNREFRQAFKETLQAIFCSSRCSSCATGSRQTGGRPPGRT
Experimental: as §1, §3, §4

[12] = molecular target: T2, is-octβ2R Y67^2.41S mutant (Ixodes scapularis, UniProt A0ACM8E5E8, Y67S); test: TGFα shedding assay, amitraz-resistant mutant Y67^2.41S; type: cell-based; settings: Table S4
T2 sequence (A0ACM8E5E8 1-384 Y67S): T1 sequence (A0ACM8E5E8 1-384 N87S) with Y67S, S87N
Experimental: as §1, §3, §4

[13] = molecular target: is-octβ2R F328^7.39A mutant (Ixodes scapularis, UniProt A0ACM8E5E8, F328A); test: TGFα shedding assay, mutant F328^7.39A; type: cell-based
Experimental: as §1, §2

[14] = Table S6, read-out: logEC50 (converted)
[15] = HEK293, 1 h, Table S2, wild type, HEK293 cells, mean ± SEM, n = 3
[16] = logEC50, Table S2, wild type, HEK293 cells, mean ± SEM, n = 3

Structure (SMILES)	EC50 [1]	logEC50 [2]	Emax ([5]; 1 h, Table S4, WT)	Emax ([5]; 1 h, Table S6, WT)	Emax [5, 15]	EC50 ([5]; LogEC50, Table S4, WT)	EC50 [5, 16]	logEC50 [6]	logEC50 [7]	logEC50 [10]	EC50 [11]	EC50 [12]	also measured
CN/C=N/c1ccc(C)cc1C [DPMF, N-2,4-dimethylphenyl-N′-methylformamidine]	63.1 nM	signal observed only at a concentration of 10^−5 M	21 ± 1%	25 ± 0.7%	24 ± 0.6%	7.94 nM	3.98 nM	no activity	no activity	no activity	7.94 nM	6.31 nM	EC50 [3, 14]: 1.26 nM; EC50 ([3]; read-out: EC50): 1.3 nM; EC50 [4, 14]: 251 nM; EC50 ([4]; read-out: EC50): 320 nM; EC50 [8]: 251 nM; EC50 [9, 14]: 5.01 nM; EC50 ([9]; read-out: EC50): 5 nM
NCC(O)c1ccc(O)cc1 (centres unmarked) [Octopamine, octopamine]	398 nM	signal observed only at 10-5 M	23 ± 0.8%	27 ± 1.5%	27 ± 0.7%	10 nM	20 nM	no activity	no activity	no activity	10 nM	12.6 nM	EC50 ([5]; logEC50, Table S6, WT): 25.1 nM; potency (EC50) relative to the other TDAs ([5]; wild type, order octopamine > tyramine > noradrenaline > dopamine): highest potency; EC50 [13, 14]: 1000 nM; EC50 ([13]; stated as a range in text, read-out: EC50): ~1000 nM
